Test results from paper PMC2709242 (Molecular cell, 2009).

Key:
[1] = system: K63-linked diUb (K63-Ub2); experiment: Fluorescence anisotropy binding to K63-linked diUb
K63-Ub4 = experiment: Fluorescence anisotropy binding to K63-linked tetraUb; details: ratio of Kd values, solution-state measurements

Molecule | linkage selectivity for diUb (K63-Ub2 vs K48-Ub2), in words [1] | K63-Ub2 binding affinity, in words ([1]; compared with other tUIM peptides) | preference for K63-Ub4 over K48-Ub4 (K63-Ub4)
REVNSQEREVNSQE: Rap80 tUIM peptide with linker between UIMs extended to 14 residues | very little selectivity | substantially more weakly | 
Rap80 (residues 1 - 233): soluble fragment of Rap80 longer than the minimal tUIMs (protein, UniProt Q96RL1 1-233, looked up, fragment) MPRRKKKVKEVSESRNLEKKDVETTSSVSVKRKRRLEDAFIVISDSDGEEPKEENGLQKTKTKQSNRAKCLAKRKIAQMTEEEQFALALKMSEQEAREVNSQEEEEEELLRKAIAESLNSCRPSDASATRSRPLATGPSSQSHQEKTTDSGLTEGIWQLVPPSLFKGSHISQGNEAEEREEPWDHTEKTEEEPVSGSSGSWDQSSQPVFENVNVKSFDRCTGHSAEHTQCGKP |  |  | 7 fold
